Like-named read-outs stand apart in the source and are kept apart here. Marks after values point to notes of the source that are not given here.
Assays:
[1] = test system: sPLA2; format: cell-based, mouse; settings: for decrease in sPLA2 level: compared to LPS-exposed cells
[2] = test system: cPLA2; format: cell-based, mouse; settings: for decrease in cPLA2 level: compared to LPS-exposed cells
[3] = test system: NO; format: cell-based, mouse; settings: for decrease in NO level: compared to LPS-exposed cells
[4] = test system: TNF-α; format: cell-based, mouse; settings: for decrease in TNF-α level: compared to LPS-exposed cells
[5] = test system: IL-8; assay: IL-8 level in LPS-treated isolated lung cells (ELISA); format: cell-based, mouse; settings: for decrease in IL-8 level: compared to LPS-exposed cells
[6] = molecular target: cPLA2; assay: biochemical; design: species or system bee
Target sequence in this assay (P00630 34-167 limits assumed): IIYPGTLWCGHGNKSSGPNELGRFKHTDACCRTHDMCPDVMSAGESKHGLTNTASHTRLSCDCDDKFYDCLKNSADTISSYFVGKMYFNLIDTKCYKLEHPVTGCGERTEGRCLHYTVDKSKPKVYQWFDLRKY

[7] = molecular target: sPLA2; assay: sPLA2 enzyme inhibition assay (Cayman Chemical kit); format: biochemical; settings: mean ± SD; tested 0–17.5 µM
Protocol: The sPLA2 screening assay was carried out according to the manufacturer’s protocol (Cayman Chemical). Briefly, 10 μL of sPLA2 was mixed with 10 μL of dimethyl sulfoxide. In a separate experiment, 10 µL of sPLA2 was added to 10 µL standard sPLA2 inhibitor (thioetheramide, 12.5 µM) and 200 µL substrate solution (diheptanoyl thiol). […] In a separate experiment, 10 μL of assay buffer was mixed with 10 μL of dimethyl sulfoxide and 200 µL of substrate solution. The reaction was initiated by the addition 10 µL of DTNB to all samples. The plate was carefully vortexed for 10 s, then covered with a plate cover and incubated for 15 min at 25 °C. Absorbance was recorded at […] using a plate reader and the IC50 was determined for the synthesized compounds (4–6 and 12) as well as the standard drugs.

[8] = molecular target: SARS-CoV-2 main protease (Severe acute respiratory syndrome coronavirus 2, UniProt P0DTD1); assay: biochemical; settings: mean ± SD; tested 0–17.5 µM
[9] = molecular target: cPLA2 (bee venom PLA2) (Apis mellifera, UniProt P00630); assay: biochemical
cPLA2 (bee venom PLA2), sequence (P00630 34-167 limits assumed): as above

[10] = LPS 1 μg/mL + higher dose: 4 2.84, 5 3.68, 6 1.18, 12 5.47, baicalein 3.88, ivermectin 149.39 µM
[11] = LPS 1 μg/mL + lower dose: 4 1.44, 5 2.08, 6 0.5, 12 2.39, baicalein 0.89, ivermectin 131.01 µM
[12] = higher dose: 4 2.84, 5 3.68, 6 1.18, 12 5.47, baicalein 3.88, ivermectin 149.39 µM
[13] = lower dose: 4 1.44, 5 2.08, 6 0.5, 12 2.39, baicalein 0.89, ivermectin 131.01 µM

Row | Molecule | sPLA2 level [1, 10] | sPLA2 level [1, 11] | decrease in sPLA2 level [1, 12] [%] | decrease in sPLA2 level [1, 13] [%] | cPLA2 level [2, 10] | cPLA2 level [2, 11] | decrease in cPLA2 level [2, 12] [%] | decrease in cPLA2 level [2, 13] [%] | NO level [3, 10] | NO level [3, 11] | decrease in NO level [3, 12] [%] | decrease in NO level [3, 13] [%] | TNF-α level [4, 10] | TNF-α level [4, 11] | decrease in TNF-α level [4, 12] [%] | decrease in TNF-α level [4, 13] [%] | IL-8 level [5, 10] | IL-8 level [5, 11] | decrease in IL-8 level [5, 12] [%] | decrease in IL-8 level [5, 13] [%] | also measured
1 | O=c1cc(-c2ccccc2)oc2cc(O)c(O)c(O)c12 [Baicalein, reference compound] | 24.77 ± 2.73 ^c pg/mL | 54.27 ± 3.46 ^h pg/mL | 80.88 | 58.11 | 616.34 ± 28.34 ^c dpm/mL | 903.43 ± 35.71 ^g dpm/mL | 78.13 | 67.33 | 20.53 ± 1.89 ^c µmol/L | 32.01 ± 4.81 ^f µmol/L | 70.07 | 53.33 | 431.21 ± 32.88 ^c pg/mL | 639.55 ± 37.84 ^g pg/mL | 56.01 | 34.76 | 1.42 ± 0.13 ^c ng/mL | 2.06 ± 0.23 ^g ng/mL | 75.26 | 64.11 | IC50 [6]: 3.88 ± 0.013 µM; IC50 [7]: 0.89 ± 0.041 µM
2 | Cc1ccnc(NS(=O)(=O)c2ccc(Nc3nc4ccccc4c(=O)n3N)cc2)n1 [Compound 4] | 29.10 ± 2.52 ^d pg/mL | 57.93 ± 2.92 ^i pg/mL | 77.54 | 55.29 | 671.05 ± 29.17 ^d dpm/mL | 1077.77 ± 68.61 ^i dpm/mL | 76.19 | 61.75 | 25.18 ± 2.98 ^d µmol/L | 37.27 ± 3.00 ^c µmol/L | 63.29 | 45.66 | 481.36 ± 39.63 ^d pg/mL | 654.20 ± 22.28 ^h pg/mL | 50.90 | 33.36 | 2.17 ± 0.07 ^d ng/mL | 2.55 ± 0.26 ^c ng/mL | 62.20 | 55.57 | IC50 [8]: 2.012 ± 0.004 µM; IC50 [6]: 1.44 ± 0.009 µM; IC50 [7]: 2.84 ± 0.026 µM
3 | COc1cc(C=Nn2c(Nc3ccc(S(=O)(=O)Nc4nccc(C)n4)cc3)nc3ccccc3c2=O)ccc1O [Compound 5] | 34.17 ± 1.73 ^e pg/mL | 72.13 ± 3.94 ^k pg/mL | 73.63 | 44.33 | 719.32 ± 37.15 ^e dpm/mL | 1258.99 ± 35.57 ^k dpm/mL | 74.48 | 55.32 | 29.37 ± 2.21 ^f µmol/L | 45.75 ± 2.87 ^g µmol/L | 57.18 | 33.29 | 524.98 ± 19.11 ^e pg/mL | 671.91 ± 23.11 ^i pg/mL | 46.44 | 31.26 | 2.40 ±0.09 ^e ng/mL | 2.74 ± 0.32 ^c ng/mL | 58.19 | 52.26 | IC50 [8]: 3.68 ± 2.35 µM; IC50 [6]: 2.08 ± 0.016 µM; IC50 [7]: 2.73 ± 0.008 µM
4 | Cc1ccnc(NS(=O)(=O)c2ccc(N3CC(=O)Nn4c3nc3ccccc3c4=O)cc2)n1 [Compound 6] | 18.29 ± 2.35 ^b pg/mL | 43.44 ± 2.74 ^g pg/mL | 85.88 | 66.47 | 536.93 ± 23.50 ^b dpm/mL | 830.11 ± 34.00 ^f dpm/mL | 80.94 | 70.54 | 19.02 ± 1.5 ^b µmol/L | 24.67 ± 2.70 ^e µmol/L | 72.27 | 64.03 | 424.25 ± 36.86 ^f pg/mL | 582.31 ± 52.25 ^e pg/mL | 56.72 | 40.59 | 1.17 ± 0.06 ^b ng/mL | 1.79 ± 0.14 ^d ng/mL | 79.62 | 68.82 | IC50 [8]: 1.18 ± 0.025 µM; IC50 [6]: 0.5 ± 0.008 µM; IC50 [7]: 1.02 ± 0.039 µM
5 | CCOC(=O)c1nn2c(=O)c3ccccc3nc2n1-c1ccc(S(=O)(=O)Nc2nccc(C)n2)cc1 [Compound 12] | 40.61 ± 4.19 ^f pg/mL | 85.23 ± 6.51 ^l pg/mL | 68.66 | 34.22 | 722.24 ± 30.40 ^e dpm/mL | 1348.21 ± 50.26 dpm/mL | 74.37 | 52.15 | 30.94 ± 3.76 ^f µmol/L | 50.36 ± 3.96 ^h µmol/L | 54.89 | 26.57 | 551.52 ± 24.65 ^f pg/mL | 748.98 ± 31.22 ^j pg/mL | 43.75 | 23.59 | 3.21 ± 0.21 ^f ng/mL | 3.84 ± 0.29 ^g ng/mL | 44.08 | 33.10 | IC50 [8]: 5.47 ± 0.018 µM; IC50 [6]: 2.39 ± 0.046 µM; IC50 [7]: 4.45 ± 0.007 µM
6 | Ivermectin [reference compound] | 62.31 ± 1.41 ^j pg/mL | 106.13 ± 9.81 ^m pg/mL | 51.41 | 18.09 | 1002.65 ± 90.98 ^h dpm/mL | 1172.50 ± 72.55 ^j dpm/mL | 64.41 | 58.39 | 50.74 ± 3.34 ^h µmol/L | 62.01 ± 4.81 ^i µmol/L | 26.02 | 9.59 | 714.29 ± 28.09 ^g pg/mL | 870.22 ± 40.62 ^k pg/mL | 27.13 | 11.23 | 3.10 ± 0.1 ^f ng/mL | 3.77 ± 0.62 ^g ng/mL | 45.99 | 34.32 | IC50 [8]: 42.4 ± 2.5 µM; IC50 [9]: 138 ± 1.54 µM; IC50 [7]: 110 ± 3.27 µM

Source: paper PMC10460087, “Structure Activity Relationship and Molecular Docking of Some Quinazolines Bearing Sulfamerazine Moiety as New 3CLpro, cPLA2, sPLA2 Inhibitors” (Molecules, 2023)
